Measurements reported in ChEMBL document CHEMBL1130710, “Design and synthesis of a novel class of nucleotide analogs with anti-HCMV activity” (Bioorg Med Chem Lett, 1998).
In brackets after ≈: the same amount, converted by molar mass. Several values for one entry are separate records, joined by “and”; a condition that tells them apart may be missing. Identical values can stand only once.

Assays:
F2002 cell line [1] = assay: (§1) Anti-HCMV activity against F2002 cell line; type: functional; details: Homo sapiens, read-out: CD50 (the source's name)
F2002 cell line [2] = assay: as §1; type: functional, cell-based, Homo sapiens
F2002 cell line [3] = assay: Compound was tested for Anti-HCMV activity against F2002 cell line(exp 1); type: functional, cell-based; details: Homo sapiens
F2002 cell line [4] = assay: Compound was tested for Anti-HCMV activity against F2002 cell line(exp 2); type: functional, cell-based; details: Homo sapiens
[5] = Homo sapiens, F2002, read-out: IC50

| IC50 (F2002 cell line [2]; [5]) [µg/mL] | IC50 (F2002 cell line [2]; f2002) | IC50 (F2002 cell line [3]) [µg/mL] | IC50 (F2002 cell line [4]) [µg/mL] | SMILES | CC50 (F2002 cell line [1]) [µg/mL] |
| --- | --- | --- | --- | --- | --- |
| > 30 |  |  |  | N.Nc1nc(O)c2ncn(C[C@H]3CO[C@H](P(=O)(O)O)O3)c2n1 | > 30 |
|  | 45 µg/mL and > 100 µg/mL |  |  | N.Nc1nc(O)c2ncn(C[C@@H]3CO[C@H](P(=O)(O)O)O3)c2n1 |  |
|  | > 100 µg/mL |  |  | Nc1nc(O)c2ncn(CC3COC(P(=O)(O)O)O3)c2n1 (stereo in doubt; 7b) | > 100 |
| > 100 |  |  |  | N.Nc1nc(O)c2ncn(C[C@@H]3CO[C@@H](P(=O)(O)O)O3)c2n1 | > 100 |
| > 100 |  |  |  | N.Nc1nc(O)c2ncn(C[C@H]3CO[C@@H](P(=O)(O)O)O3)c2n1 | > 100 |
|  | 20 µg/mL (≈ 63.1 µM) |  |  | Nc1nc(O)c2ncn(CC3COC(P(=O)(O)O)O3)c2n1 (stereo in doubt; 7a) |  |

The remaining lines, values behind:

| SMILES | IC50 (F2002 cell line [2]; [5]) [µg/mL] | IC50 (F2002 cell line [2]; f2002) | IC50 (F2002 cell line [3]) [µg/mL] | IC50 (F2002 cell line [4]) [µg/mL] | CC50 (F2002 cell line [1]) [µg/mL] |
| --- | --- | --- | --- | --- | --- |
| N.O=c1ccn(CC2COC(P(=O)(O)O)O2)c(=O)[nH]1 (stereo unspecified) | > 100 |  |  |  | > 100 |
| Nc1ncnc2c1ncn2CC1COC(P(=O)(O)O)O1 (stereo unspecified) | > 100 |  |  |  | > 100 |
| Cc1cn(CC2COC(P(=O)(O)O)O2)c(=O)[nH]c1=O (stereo unspecified) | > 100 |  |  |  | > 100 |
| Nc1ccn(CC2COC(P(=O)(O)O)O2)c(=O)n1 (stereo unspecified) | > 100 |  |  |  | > 100 |
| Nc1nc2c(ncn2COC(CO)CO)c(=O)[nH]1 [GANCICLOVIR] |  |  | 0.1 (≈ 0.392 µM) | 0.2 (≈ 0.784 µM) | > 100 |
